Reference: patent US10473647B1, “Peptides for use in treatment and diagnosis of type 1 diabetes” (ImmusanT, Inc., priority 2014, dated 2019)
No end group written: not given here.

Key:
Type in all cases: cell-based, human
[1] = tested on: undepleted whole blood; experiment: Whole blood cytokine assay, IP-10, undepleted blood, number of subjects with >=1.25 fold over medium (Example 2); conditions: 24 h, peptides 20 ug/mL, pools 4 ug/mL, NEX-01/Nexgen POOL 25 uM, CEFT 1 ug/mL
Experimental: (§1) The depleted blood as well as the remaining undepleted whole blood was then utilized in whole blood cytokine release assays. T-cell cytokine responses were assessed for reactivity to pools of 17mer peptides encompassing all unique 12mer amino-acid sequences derived from pancreatic islet antigens commonly recognized by autoantibodies in T1D: insulin, glutamic decarboxylase-65 (GAD65), and insulinoma-associated antigen (IA)-2 as provided in Table 13A and Table 13B.
(§2) Fresh heparinized blood was incubated with peptide. Concentrations of individual islet-autoantigen peptides were 20 μg/mL and constituent peptides in islet-autoantigen pools were 4 ug/mL. Control MHC class II peptide mix CEFT was used at 1 μg/mL. Gliadin peptide pools were added to whole blood assays at 25 μM. Whole blood assays were incubated for 24 h at 37° C. in 5% CO2. Plasma was separated from blood after centrifugation at 500×g for 10 minutes at room temperature and then transferred to a corresponding well in a “mirror image” sterile 96-well plate. and frozen at −80° C. until use. Multiplex bead-based cytokine assays (MAGPix) were performed according to manufacturer's instructions on thawed plasma. Concentrations of interferon (IFN)-γ-induced protein-10 (IP-10), interleukin (IL)-2 and IFN-γ. Table 14 is a summary of the results for the whole blood cytokine assays which expresses the data in the number of subjects that are positive for ≥1.25 fold production of cytokine over cells incubated with medium only (background).

[2] = tested on: CD8+ T cell depleted blood; experiment: Whole blood cytokine assay, IL-2, CD8+ T cell depleted blood (Example 2); conditions: T1D Subjects (n of 6), 24 h, peptides 20 ug/mL, pools 4 ug/mL, NEX-01/Nexgen POOL 25 uM, CEFT 1 ug/mL
Experimental: (§3) Depletion of human CD4+ and CD8+ T cells directly from whole blood, using CD4 and CD8 Dynabeads respectively (Dynabeads Human CD4, Life Technologies, #11145D; Dynabeads Human CD8, Life Technologies, #11145D), was done according to the manufacturer's protocol. Briefly, the Dynabeads were resuspended and the desired volume was transferred to a 15 Ml tube. The calculation of the volume of beads added to whole blood was 2×10^6 CD4 beads (25 μL) and 4×10^6 CD8 beads (50 μL) per Ml of whole blood. The beads were first washed with 3 Ml PBS, vortexed and placed on the magnet for 1 minute. Supernatant was discarded and beads were removed from the magnet. Whole blood was then added to the beads at the volume calculated for the concentration of beads in the tubes. The tubes containing whole blood and Dynabeads were then incubated 45 minutes at 4° C. on a continuous rocker.
(§4) Tubes were then placed into the magnet for 2 minutes. The whole blood supernatant was then transferred to a new tube for use in 24-hour Whole Blood Assay or for Flow Cytometric Analysis. Magnetic beads were discarded.
as §1, §2

[3] = tested on: CD8+ T cell depleted blood; experiment: Whole blood cytokine assay, IFNg, CD8+ T cell depleted blood (Example 2); conditions: T1D Subjects (n of 6), 24 h, peptides 20 ug/mL, pools 4 ug/mL, NEX-01/Nexgen POOL 25 uM, CEFT 1 ug/mL
Experimental: as §3, §4, §1, §2

[4] = tested on: undepleted whole blood; experiment: Whole blood cytokine assay, IFNg, undepleted blood, number of subjects with >=1.25 fold over medium (Example 2); conditions: 24 h, peptides 20 ug/mL, pools 4 ug/mL, NEX-01/Nexgen POOL 25 uM, CEFT 1 ug/mL
Experimental: as §1, §2

[5] = tested on: CD4+ T cell depleted blood; experiment: Whole blood cytokine assay, IFNg, CD4+ T cell depleted blood (Example 2); conditions: T1D Subjects (n of 6), 24 h, peptides 20 ug/mL, pools 4 ug/mL, NEX-01/Nexgen POOL 25 uM, CEFT 1 ug/mL
Experimental: as §3, §4, §1, §2

[6] = tested on: CD4+ T cell depleted blood; experiment: Whole blood cytokine assay, IP-10, CD4+ T cell depleted blood (Example 2); conditions: T1D Subjects (n of 6), 24 h, peptides 20 ug/mL, pools 4 ug/mL, NEX-01/Nexgen POOL 25 uM, CEFT 1 ug/mL
Experimental: as §3, §4, §1, §2

[7] = tested on: CD8+ T cell depleted blood; experiment: Whole blood cytokine assay, IP-10, CD8+ T cell depleted blood (Example 2); conditions: T1D Subjects (n of 6), 24 h, peptides 20 ug/mL, pools 4 ug/mL, NEX-01/Nexgen POOL 25 uM, CEFT 1 ug/mL
Experimental: as §3, §4, §1, §2

[8] = tested on: undepleted whole blood; experiment: Whole blood cytokine assay, IL-2, undepleted blood, number of subjects with >=1.25 fold over medium (Example 2); conditions: 24 h, peptides 20 ug/mL, pools 4 ug/mL, NEX-01/Nexgen POOL 25 uM, CEFT 1 ug/mL
Experimental: as §1, §2

[9] = tested on: whole blood from subjects with Type 1 Diabetes; experiment: Whole blood IP-10 release assay, fine mapping of preproinsulin epitope (Example 3); conditions: peptide 10 μM; average of 4 subjects with T1D; FIG. 1A-1C
Text: The leader sequence of the preproinsulin epitope was fine mapped with lys-substituted peptides and C- and N-terminal truncations. […] Without wishing to be bound by any theory, a therapeutic and/or diagnostic peptide in accordance with the present disclosure may be selected to avoid CD8 activity but ensure that CD4 T cells were targeted. The data are the averages of 4 subjects whole blood IP-10 release measured as fold change over medium alone without peptide.
Whole blood was collected from 4 subjects with Type 1 Diabetes aged between 29 and 45-years old. […] In whole blood assays using fresh heparinized blood incubated with peptide (final concentration 10 μM) in phosphate buffered saline (PBS) and DMSO in 96-well round-bottom plates. Peptides (purity by LC-MS >80%) were truncations or lysine-substituted variants of a sequence in preproinsulin shown to be immunogenic in previous studies comparing peptides spanning this polypeptide. […] Assay plates were run on the Luminex MAGPIX magnetic plate reader. The upper limit of quantitation is 10,000 pg/mL and the lower limit of detection is 3.2 pg/mL. The Fold Change of cytokine concentrations from incubations with individual peptides was calculated by dividing the cytokine concentration from the individual peptide incubations by the cytokine concentration of incubations with PBS and DMSO (NIL) on the same assay plates. […]

[10] = Healthy Subjects (n of 4), whole blood
[11] = T1D Subjects (n of 6), Undepleted WB

Row | Substance | Fold Change IP-10, number of subjects positive for ≥1.25 fold production of cytokine over medium only [1, 10] | Fold Change IP-10, number of subjects positive for ≥1.25 fold production of cytokine over medium only [1, 11] | Fold Change IL-2, number of subjects positive for ≥1.25 fold production of cytokine over medium only [2] | Fold Change IFNg, number of subjects positive for ≥1.25 fold production of cytokine over medium only [3] | Fold Change IFNg, number of subjects positive for ≥1.25 fold production of cytokine over medium only [4, 10] | Fold Change IFNg, number of subjects positive for ≥1.25 fold production of cytokine over medium only [5] | Fold Change IP-10, number of subjects positive for ≥1.25 fold production of cytokine over medium only [6] | Fold Change IP-10, number of subjects positive for ≥1.25 fold production of cytokine over medium only [7] | Fold Change IL-2, number of subjects positive for ≥1.25 fold production of cytokine over medium only [8, 11] | Fold Change IL-2, number of subjects positive for ≥1.25 fold production of cytokine over medium only [8, 10] | Fold Change IFNg, number of subjects positive for ≥1.25 fold production of cytokine over medium only [4, 11] | bioactivity in whole blood IP-10 release assay (fold change over medium alone), in words [9]
1 | 20150-01: peptide tested in Example 2 whole blood cytokine assays (Tables 13A/13B, 14) (FYTPKTRREAEDLQGSL) | 2/4 | 4/6 | 1/6 | – | – | – | – | – | – | – | – | –
2 | 20150-19 (EDLQVGQVELGGGPGAG-NH2) [Peptide 20150-19] | 1/4 | – | 1/6 | 3/6 | 1/4 | 2/6 | – | – | – | – | – | –
3 | L2P1, 049 (FNQLSTGLDMVGLAADW) | – | – | – | – | – | 1/6 | 2/6 | 2/6 | – | – | – | –
4 | 20150-11-W1 (NQHLCGSHLVEALYLVC) | 2/4 | 2/6 | – | 1/6 | – | 1/6 | – | 2/6 | 1/6 | – | – | –
5 | 20150-15 (LQGSLQPLALEGSLQKR) [Peptide 20150-15] | – | – | 1/6 | 2/6 | – | 1/6 | – | – | – | – | – | –
6 | 20150-05-W1: peptide tested in Example 2 whole blood cytokine assays (Tables 13A/13B, 14) (REAEDLQVGQVELGGGP) | 3/4 | 4/6 | 1/6 | 1/6 | – | 1/6 | 3/6 | 5/6 | – | – | – | –
7 | L3P2, 076 (GRTGTYILIDMVLNRMA) | 3/4 | 6/6 | 6/6 | 5/6 | 1/4 | – | 3/6 | 5/6 | 5/6 | 1/4 | 4/6 | –
8 | LLALLALWGPD [SEQ ID NO: 14] | – | – | – | – | – | – | – | – | – | – | – | compatible with an epitope for CD4 T cells
9 | LPLLALLAL [SEQ ID NO: 76] | – | – | – | – | – | – | – | – | – | – | – | suggests this is an epitope for CD8 T cells
10 | 20150-24: peptide tested in Example 2 whole blood cytokine assays (Tables 13A/13B, 14) (PLLALLALWGPDPAAAF) | 4/4 | 6/6 | 6/6 | 5/6 | 1/4 | 1/6 | 3/6 | 5/6 | 4/6 | 1/4 | 4/6 | –
11 | L2P1, 051 (NMFTYEIAPVFVLLEYV) | 3/4 | 4/6 | 2/6 | 2/6 | – | 1/6 | 3/6 | 5/6 | 1/6 | – | – | –
